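Results reflect a 48-hour exposure of cells in 96-well plates to compound at five concentrations. Definition used: TGI = concentration required for complete inhibition of growth.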 Where a SMILES comes first, the peptide text is derived from it.
Assays:
Test in all cases: NCI-60 cell line screen, 48 h
A549 NSCLC = test system: A549 NSCLC
ACHN renal = test system: ACHN renal
HCC-2998 colon = test system: HCC-2998 colon
HCT-15 colon = test system: HCT-15 colon
HL-60(TB) leukemia = test system: HL-60(TB) leukemia
IGROV1 ovarian = test system: IGROV1 ovarian
LOX IMVI melanoma = test system: LOX IMVI melanoma
MALME-3M melanoma = test system: MALME-3M melanoma
MDA-MB-435 = test system: MDA-MB-435
OVCAR-5 ovarian = test system: OVCAR-5 ovarian
T-47D breast = test system: T-47D breast
U251 CNS = test system: U251 CNS
UACC-257 melanoma = test system: UACC-257 melanoma
UACC-62 melanoma = test system: UACC-62 melanoma

## COC(=O)C1(C)OC(C)=NC1(C(=O)OC)C(=O)OC (stereo not given)
A549 NSCLC
  TGI: > 100 µM
ACHN renal
  TGI: > 100 µM
HCC-2998 colon
  TGI: > 100 µM
HCT-15 colon
  TGI: > 100 µM
HL-60(TB) leukemia
  TGI: 14.4 µM
IGROV1 ovarian
  TGI: > 100 µM
LOX IMVI melanoma
  TGI: > 100 µM
MALME-3M melanoma
  TGI: > 100 µM
MDA-MB-435
  TGI: > 100 µM
OVCAR-5 ovarian
  TGI: > 100 µM
T-47D breast
  TGI: > 100 µM
U251 CNS
  TGI: > 100 µM
UACC-257 melanoma
  TGI: > 100 µM
UACC-62 melanoma
  TGI: > 100 µM

## C[N+]12CCCCC1C(CN1C(=O)c3ccccc3C1=O)CCC2 (stereo not given)
A549 NSCLC
  TGI: > 100 µM
ACHN renal
  TGI: > 100 µM
HCC-2998 colon
  TGI: > 100 µM
HCT-15 colon
  TGI: > 100 µM
HL-60(TB) leukemia
  TGI: > 100 µM
IGROV1 ovarian
  TGI: > 100 µM
LOX IMVI melanoma
  TGI: > 100 µM
MALME-3M melanoma
  TGI: > 100 µM
MDA-MB-435
  TGI: > 100 µM
OVCAR-5 ovarian
  TGI: > 100 µM
T-47D breast
  TGI: > 100 µM
U251 CNS
  TGI: > 100 µM
UACC-257 melanoma
  TGI: > 100 µM
UACC-62 melanoma
  TGI: > 100 µM

## CC(=O)NC(CO)C(=O)NC(Cc1ccc(O)cc1)C(=O)NCC(N)=O (stereo not drawn) (Ac-Ser-Tyr-Gly-NH2; configuration not given here)
A549 NSCLC
  TGI: > 100 µM
ACHN renal
  TGI: > 100 µM
HCC-2998 colon
  TGI: > 100 µM
HCT-15 colon
  TGI: > 100 µM
HL-60(TB) leukemia
  TGI: > 100 µM
IGROV1 ovarian
  TGI: > 100 µM
LOX IMVI melanoma
  TGI: > 100 µM
MALME-3M melanoma
  TGI: > 100 µM
MDA-MB-435
  TGI: > 100 µM
OVCAR-5 ovarian
  TGI: > 100 µM
T-47D breast
  TGI: > 100 µM
U251 CNS
  TGI: > 100 µM
UACC-257 melanoma
  TGI: > 100 µM
UACC-62 melanoma
  TGI: > 100 µM

## COC(=O)C1=NN2c3ccccc3CN([C@@H](C)c3ccccc3)C(=O)[C@H]2[C@@H]1C
A549 NSCLC
  TGI: > 100 µM
ACHN renal
  TGI: > 100 µM
HCC-2998 colon
  TGI: > 100 µM
HCT-15 colon
  TGI: > 100 µM
HL-60(TB) leukemia
  TGI: > 100 µM
LOX IMVI melanoma
  TGI: > 100 µM
MALME-3M melanoma
  TGI: > 100 µM
MDA-MB-435
  TGI: > 100 µM
OVCAR-5 ovarian
  TGI: > 100 µM
T-47D breast
  TGI: 88.3 µM
U251 CNS
  TGI: > 100 µM
UACC-257 melanoma
  TGI: > 100 µM
UACC-62 melanoma
  TGI: > 100 µM

## CC(C)(CN)SCc1ccccc1
A549 NSCLC
  TGI: > 100 µM
ACHN renal
  TGI: > 100 µM
HCT-15 colon
  TGI: > 100 µM
HL-60(TB) leukemia
  TGI: > 100 µM
IGROV1 ovarian
  TGI: > 100 µM
LOX IMVI melanoma
  TGI: > 100 µM
MALME-3M melanoma
  TGI: > 100 µM
MDA-MB-435
  TGI: > 100 µM
OVCAR-5 ovarian
  TGI: > 100 µM
T-47D breast
  TGI: > 100 µM
U251 CNS
  TGI: > 100 µM
UACC-257 melanoma
  TGI: > 100 µM
UACC-62 melanoma
  TGI: > 100 µM

## CC/C=C/C(/C=C/C[C@]1(CC)C[C@H](CC)[C@H](CC(=O)O)OO1)CC (stereo not given in full)
A549 NSCLC
  TGI: 3.99 µM
ACHN renal
  TGI: 3.61 µM
HCT-15 colon
  TGI: 8.97 µM
HL-60(TB) leukemia
  TGI: 4.76 µM
IGROV1 ovarian
  TGI: 0.899 µM
LOX IMVI melanoma
  TGI: 1.76 µM
MALME-3M melanoma
  TGI: 29.3 µM
MDA-MB-435
  TGI: 4.46 µM
OVCAR-5 ovarian
  TGI: 7.61 µM
T-47D breast
  TGI: > 23.1 µM
U251 CNS
  TGI: 3.36 µM
UACC-257 melanoma
  TGI: 28.9 µM
UACC-62 melanoma
  TGI: 12.1 µM

## CCSC12CC3c4cccc5c4C(CN5C(=O)c4ccccc4)CC3(O1)N(C)C2=O (stereo not given)
A549 NSCLC
  TGI: > 100 µM
ACHN renal
  TGI: > 100 µM
HCT-15 colon
  TGI: > 100 µM
HL-60(TB) leukemia
  TGI: 55.7 µM
IGROV1 ovarian
  TGI: > 100 µM
LOX IMVI melanoma
  TGI: > 100 µM
MALME-3M melanoma
  TGI: 88.3 µM
MDA-MB-435
  TGI: > 100 µM
OVCAR-5 ovarian
  TGI: > 100 µM
T-47D breast
  TGI: > 100 µM
U251 CNS
  TGI: > 100 µM
UACC-257 melanoma
  TGI: > 100 µM
UACC-62 melanoma
  TGI: 67.9 µM

## Cc1cc(-c2ccc(C(=O)C(c3ccccc3)(c3ccccc3)c3ccccc3)[nH]2)on1
A549 NSCLC
  TGI: 45.6 µM
HCC-2998 colon
  TGI: 25.6 µM
HCT-15 colon
  TGI: 41.6 µM
HL-60(TB) leukemia
  TGI: 26.1 µM
IGROV1 ovarian
  TGI: 73.9 µM
LOX IMVI melanoma
  TGI: 53.3 µM
MALME-3M melanoma
  TGI: > 100 µM
MDA-MB-435
  TGI: 67.7 µM
OVCAR-5 ovarian
  TGI: > 100 µM
T-47D breast
  TGI: > 100 µM
U251 CNS
  TGI: 37.1 µM
UACC-257 melanoma
  TGI: > 100 µM
UACC-62 melanoma
  TGI: 37 µM

## O=C1C(NS(=O)(=O)c2ccccc2)=C(N(Cc2ccccc2)Cc2ccccc2)C(=O)c2ccccc21
A549 NSCLC
  TGI: > 100 µM
ACHN renal
  TGI: > 100 µM
HCT-15 colon
  TGI: > 100 µM
HL-60(TB) leukemia
  TGI: 66.1 µM
IGROV1 ovarian
  TGI: > 100 µM
LOX IMVI melanoma
  TGI: > 100 µM
MALME-3M melanoma
  TGI: 0.584 µM
MDA-MB-435
  TGI: > 100 µM
OVCAR-5 ovarian
  TGI: > 100 µM
T-47D breast
  TGI: > 100 µM
U251 CNS
  TGI: > 100 µM
UACC-257 melanoma
  TGI: > 100 µM
UACC-62 melanoma
  TGI: > 100 µM

## OC1(c2ccc3ccccc3c2)c2c(c3ccccc3c3ccccc23)C2=NCCN21 (stereo not given)
A549 NSCLC
  TGI: > 69.4 µM
ACHN renal
  TGI: > 100 µM
HCT-15 colon
  TGI: > 39.4 µM
HL-60(TB) leukemia
  TGI: > 100 µM
IGROV1 ovarian
  TGI: 24 µM
LOX IMVI melanoma
  TGI: 5.41 µM
MALME-3M melanoma
  TGI: 38.1 µM
MDA-MB-435
  TGI: 5.1 µM
OVCAR-5 ovarian
  TGI: > 83.7 µM
T-47D breast
  TGI: > 40.6 µM
U251 CNS
  TGI: 17.7 µM
UACC-257 melanoma
  TGI: > 63.5 µM
UACC-62 melanoma
  TGI: > 55.1 µM

## CCCN(CCC)C(=O)c1c(Cl)c2cccnc2n2c(C)cnc12
A549 NSCLC
  TGI: > 100 µM
ACHN renal
  TGI: > 100 µM
HCC-2998 colon
  TGI: > 100 µM
HL-60(TB) leukemia
  TGI: 71.7 µM
IGROV1 ovarian
  TGI: > 100 µM
LOX IMVI melanoma
  TGI: > 100 µM
MALME-3M melanoma
  TGI: > 100 µM
MDA-MB-435
  TGI: 85.3 µM
OVCAR-5 ovarian
  TGI: > 100 µM
T-47D breast
  TGI: > 100 µM
UACC-257 melanoma
  TGI: > 100 µM
UACC-62 melanoma
  TGI: > 100 µM

## CC1=C(C(=O)NC(C)(C)C)CC(C(=O)NC(C)(C)C)C(C)N1 (stereo not given)
A549 NSCLC
  TGI: > 100 µM
ACHN renal
  TGI: > 100 µM
HCC-2998 colon
  TGI: > 100 µM
HCT-15 colon
  TGI: > 100 µM
HL-60(TB) leukemia
  TGI: > 100 µM
IGROV1 ovarian
  TGI: > 100 µM
LOX IMVI melanoma
  TGI: > 100 µM
MDA-MB-435
  TGI: > 100 µM
OVCAR-5 ovarian
  TGI: > 100 µM
T-47D breast
  TGI: > 100 µM
U251 CNS
  TGI: > 100 µM
UACC-257 melanoma
  TGI: > 100 µM
UACC-62 melanoma
  TGI: > 100 µM

## CSc1nc(-c2ccc(Cl)cc2)c(C#N)c(=O)[nH]1
A549 NSCLC
  TGI: > 100 µM
ACHN renal
  TGI: > 100 µM
HCC-2998 colon
  TGI: > 100 µM
HCT-15 colon
  TGI: > 100 µM
HL-60(TB) leukemia
  TGI: > 100 µM
IGROV1 ovarian
  TGI: > 100 µM
MDA-MB-435
  TGI: > 100 µM
OVCAR-5 ovarian
  TGI: > 100 µM
T-47D breast
  TGI: > 100 µM
U251 CNS
  TGI: > 100 µM
UACC-257 melanoma
  TGI: > 100 µM
UACC-62 melanoma
  TGI: > 100 µM
